The source of these data is patent publication US20210015752A1, “METHODS FOR PRODUCING PARTICLES OF AN ACTIVE INGREDIENT” (Savior Lifetec Corporation, priority 2017, published 2021).

What all share (assay type): physicochemical
Data set [1] is described as follows: Emulsion test of L-ascorbic acid in various types of solvents. Particulars: stirred 3 hr. An excerpt: Two combinations of solvents gave emulsified solutions, there were tetrahydrofuran/heptanes and methanol/water
Data set [2] is described as follows: Solubility test of paliperidone palmitate in various types of solvents. Particulars: ratio 1/15 (v/w), 30° C., stirred about 0.5 hour. The procedure: The solubility of paliperidone palmitate in various types of solvents was evaluated. To this purpose, paliperidone palmitate and the designated solvent were mixed in a ratio of 1/15 (v/w) at 30° C. and the mixture was stirred for about 0.5 hour.

A short description of data set [3]: Emulsion test of paliperidone palmitate in various types of solvents. Particulars: stirred 3 hr. The procedure: Paliperidone palmitate was dissolved in DCM, THF, or toluene at 30° C. and stirred for about 0.5 hour to form a first solution, then a second solvent (as indicated in Table 2) was added and stirred for 3 hr. As the data in Table 2 indicated, among the 36 combinations (i.e., the combination of one of the 3 first solutions and one of the second solvents), only three combinations gave satisfied emulsified solutions, which comprised particles of paliperidone palmitate. The 3 combinations were THF/water, toluene/heptanes, and toluene/hexane, respectively.

As for `O=C1O[C@H]([C@@H](O)CO)C(O)=C1O` [L-ascorbic acid], the “Emulsion test result of the first solution containing L-ascorbic acid with the second solvent” value is on record as “emulsified” in data set [1] (first solvent methanol, second solvent water) and “emulsified” in data set [1] (first solvent tetrahydrofuran, second solvent heptanes).
As for `CCCCCCCCCCCCCCCC(=O)OC1CCCn2c1nc(C)c(CCN1CCC(c3noc4cc(F)ccc34)CC1)c2=O` (centres unmarked) [paliperidone palmitate], the “Solubility of paliperidone palmitate” value was “insoluble” in data set [2] (solvent ACN); “insoluble” in data set [2] (solvent Acetone); “soluble” in data set [2] (solvent DCM); “insoluble” in data set [2] (solvent EtOAc); “insoluble” in data set [2] (solvent EtOH); “insoluble” in data set [2] (solvent Heptanes). In addition, the “Solubility of paliperidone palmitate” value in data set [2] (solvent Hexane) is on record as “insoluble”; in data set [2] (solvent IPA), “insoluble”; in data set [2] (solvent MTBE), “insoluble”; in data set [2] (solvent THF) it was “soluble”; in data set [2] (solvent Toluene) it was “soluble”; in data set [2] (solvent Water), “insoluble”. In addition, the “Solubility of the second solvent in the first solution containing paliperidone palmitate” value (“Solubility of the second solvent” for short) in data set [3] (first solvent DCM, second solvent ACN) is “miscible”; in data set [3] (first solvent DCM, second solvent Acetone) it was “miscible”; in data set [3] (first solvent DCM, second solvent EtOAc), “miscible”; in data set [3] (first solvent DCM, second solvent EtOH) it was “miscible”; in data set [3] (first solvent DCM, second solvent Heptanes) it was “miscible”; in data set [3] (first solvent DCM, second solvent Hexane) it was “miscible”. For the same molecule, the “Solubility of the second solvent” value in data set [3] (first solvent DCM, second solvent IPA) is given as “miscible”; in data set [3] (first solvent DCM, second solvent MTBE) it was “miscible”; in data set [3] (first solvent DCM, second solvent THF) it was “miscible”; in data set [3] (first solvent DCM, second solvent Toluene), “miscible”; in data set [3] (first solvent DCM, second solvent Water), “layered”; in data set [3] (first solvent THF, second solvent ACN) it was “miscible”. Further, the “Solubility of the second solvent” value in data set [3] (first solvent THF, second solvent Acetone) is listed as “miscible”; in data set [3] (first solvent THF, second solvent DCM), “miscible”; in data set [3] (first solvent THF, second solvent EtOAc) it was “miscible”; in data set [3] (first solvent THF, second solvent EtOH) it was “miscible”; in data set [3] (first solvent THF, second solvent Heptanes), “miscible”; in data set [3] (first solvent THF, second solvent Hexane) it was “miscible”. For the same molecule, the “Solubility of the second solvent” value in data set [3] (first solvent THF, second solvent IPA) is recorded as “miscible”; in data set [3] (first solvent THF, second solvent MTBE), “miscible”; in data set [3] (first solvent THF, second solvent Toluene), “miscible”; in data set [3] (first solvent THF, second solvent Water) it was “emulsified”; in data set [3] (first solvent Toluene, second solvent ACN) it was “miscible”; in data set [3] (first solvent Toluene, second solvent Acetone), “miscible”. For the same molecule, the “Solubility of the second solvent” value is recorded as “miscible” in data set [3] (first solvent Toluene, second solvent DCM); “miscible” in data set [3] (first solvent Toluene, second solvent EtOAc); “miscible” in data set [3] (first solvent Toluene, second solvent EtOH); “emulsified” in data set [3] (first solvent Toluene, second solvent Heptanes); “emulsified” in data set [3] (first solvent Toluene, second solvent Hexane); “miscible” in data set [3] (first solvent Toluene, second solvent IPA). The “Solubility of the second solvent” value is given as “miscible” in data set [3] (first solvent Toluene, second solvent MTBE); “miscible” in data set [3] (first solvent Toluene, second solvent THF); “layered” in data set [3] (first solvent Toluene, second solvent Water).
